Test results published in patent publication US8192962B2, “Processes for detecting toxic substances” (Daikin Industries, Ltd., priority 2001, dated 2012).

Tested on: DNA repair protein genes
Assay: DNA chip mRNA expression in yeast, DNA repair protein genes (Table 3)
Assay type: cell-based, Saccharomyces cerevisiae S288C
Conditions: incubated two hours, concentrations as in the 1st table
In short: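 S. cerevisiae S288C grown at 25° C. in YPD to log phase, then exposed 2 h to a toxicant at a growth-inhibiting, non-lethal concentration; untreated cells as control. Poly(A) mRNA reverse-transcribed with Cy3-dUTP or Cy5-dUTP, hybridized >12 h at 65° C. to whole-genome yeast DNA chip; value = fluorescence ratio treated/untreated.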

## [Cl][Pb][Cl] [(4), PbCl2]
Yeast gene YAL015C
  The level of expressed mRNA in the presence of chemical substance/The level of expressed mRNA in the absence of chemical substance: 1.9
Yeast gene YAR007C
  The level of expressed mRNA in the presence of chemical substance/The level of expressed mRNA in the absence of chemical substance: 0.5
Yeast gene YBL019W
  The level of expressed mRNA in the presence of chemical substance/The level of expressed mRNA in the absence of chemical substance: 1.2
Yeast gene YBR073W
  The level of expressed mRNA in the presence of chemical substance/The level of expressed mRNA in the absence of chemical substance: 0.7
Yeast gene YBR272C
  The level of expressed mRNA in the presence of chemical substance/The level of expressed mRNA in the absence of chemical substance: 1.0
Yeast gene YCR014C
  The level of expressed mRNA in the presence of chemical substance/The level of expressed mRNA in the absence of chemical substance: 0.6
Yeast gene YDL017W
  The level of expressed mRNA in the presence of chemical substance/The level of expressed mRNA in the absence of chemical substance: 1.3
Yeast gene YDL059C
  The level of expressed mRNA in the presence of chemical substance/The level of expressed mRNA in the absence of chemical substance: 1.7
Yeast gene YDL200C
  The level of expressed mRNA in the presence of chemical substance/The level of expressed mRNA in the absence of chemical substance: 1.8
Yeast gene YDR054C
  The level of expressed mRNA in the presence of chemical substance/The level of expressed mRNA in the absence of chemical substance: 1.4
Yeast gene YDR369C
  The level of expressed mRNA in the presence of chemical substance/The level of expressed mRNA in the absence of chemical substance: 1.1
Yeast gene YEL019C
  The level of expressed mRNA in the presence of chemical substance/The level of expressed mRNA in the absence of chemical substance: 0.7
Yeast gene YEL037C
  The level of expressed mRNA in the presence of chemical substance/The level of expressed mRNA in the absence of chemical substance: 1.0
Yeast gene YER162C
  The level of expressed mRNA in the presence of chemical substance/The level of expressed mRNA in the absence of chemical substance: 1.1
Yeast gene YFL014W
  The level of expressed mRNA in the presence of chemical substance/The level of expressed mRNA in the absence of chemical substance: 11.0
Yeast gene YGL058W
  The level of expressed mRNA in the presence of chemical substance/The level of expressed mRNA in the absence of chemical substance: 0.7
Yeast gene YGL091C
  The level of expressed mRNA in the presence of chemical substance/The level of expressed mRNA in the absence of chemical substance: 1.7
Yeast gene YGL127C
  The level of expressed mRNA in the presence of chemical substance/The level of expressed mRNA in the absence of chemical substance: 1.7
Yeast gene YGL163C
  The level of expressed mRNA in the presence of chemical substance/The level of expressed mRNA in the absence of chemical substance: 4.3
Yeast gene YGL249W
  The level of expressed mRNA in the presence of chemical substance/The level of expressed mRNA in the absence of chemical substance: 0.8
Yeast gene YGR180C
  The level of expressed mRNA in the presence of chemical substance/The level of expressed mRNA in the absence of chemical substance: 1.0
Yeast gene YGR231C
  The level of expressed mRNA in the presence of chemical substance/The level of expressed mRNA in the absence of chemical substance: 1.0
Yeast gene YGR258C
  The level of expressed mRNA in the presence of chemical substance/The level of expressed mRNA in the absence of chemical substance: 0.7
Yeast gene YHR164C
  The level of expressed mRNA in the presence of chemical substance/The level of expressed mRNA in the absence of chemical substance: 0.7
Yeast gene YIL036W
  The level of expressed mRNA in the presence of chemical substance/The level of expressed mRNA in the absence of chemical substance: 1.8
Yeast gene YIL072W
  The level of expressed mRNA in the presence of chemical substance/The level of expressed mRNA in the absence of chemical substance: 2.6
Yeast gene YIL143C
  The level of expressed mRNA in the presence of chemical substance/The level of expressed mRNA in the absence of chemical substance: 0.9
Yeast gene YIL153W
  The level of expressed mRNA in the presence of chemical substance/The level of expressed mRNA in the absence of chemical substance: 2.9
Yeast gene YIR002C
  The level of expressed mRNA in the presence of chemical substance/The level of expressed mRNA in the absence of chemical substance: 0.6
Yeast gene YJL026W
  The level of expressed mRNA in the presence of chemical substance/The level of expressed mRNA in the absence of chemical substance: 1.0
Yeast gene YJR046W
  The level of expressed mRNA in the presence of chemical substance/The level of expressed mRNA in the absence of chemical substance: 1.5
Yeast gene YJR052W
  The level of expressed mRNA in the presence of chemical substance/The level of expressed mRNA in the absence of chemical substance: 1.0
Yeast gene YKL145W
  The level of expressed mRNA in the presence of chemical substance/The level of expressed mRNA in the absence of chemical substance: 1.0
Yeast gene YLR103C
  The level of expressed mRNA in the presence of chemical substance/The level of expressed mRNA in the absence of chemical substance: 0.4
Yeast gene YLR233C
  The level of expressed mRNA in the presence of chemical substance/The level of expressed mRNA in the absence of chemical substance: 2.0
Yeast gene YLR288C
  The level of expressed mRNA in the presence of chemical substance/The level of expressed mRNA in the absence of chemical substance: 1.8
Yeast gene YML032C
  The level of expressed mRNA in the presence of chemical substance/The level of expressed mRNA in the absence of chemical substance: 0.7
Yeast gene YML058W
  The level of expressed mRNA in the presence of chemical substance/The level of expressed mRNA in the absence of chemical substance: 1.9
Yeast gene YMR035W
  The level of expressed mRNA in the presence of chemical substance/The level of expressed mRNA in the absence of chemical substance: 1.7
Yeast gene YMR072W
  The level of expressed mRNA in the presence of chemical substance/The level of expressed mRNA in the absence of chemical substance: 1.0
Yeast gene YMR096W
  The level of expressed mRNA in the presence of chemical substance/The level of expressed mRNA in the absence of chemical substance: 0.8
Yeast gene YMR284W
  The level of expressed mRNA in the presence of chemical substance/The level of expressed mRNA in the absence of chemical substance: 2.0
Yeast gene YNL213C
  The level of expressed mRNA in the presence of chemical substance/The level of expressed mRNA in the absence of chemical substance: 1.5
Yeast gene YNL250W
  The level of expressed mRNA in the presence of chemical substance/The level of expressed mRNA in the absence of chemical substance: 1.2
Yeast gene YNL261W
  The level of expressed mRNA in the presence of chemical substance/The level of expressed mRNA in the absence of chemical substance: 1.3
Yeast gene YNL312W
  The level of expressed mRNA in the presence of chemical substance/The level of expressed mRNA in the absence of chemical substance: 0.7
Yeast gene YOL043C
  The level of expressed mRNA in the presence of chemical substance/The level of expressed mRNA in the absence of chemical substance: 1.7
Yeast gene YOR005C
  The level of expressed mRNA in the presence of chemical substance/The level of expressed mRNA in the absence of chemical substance: 0.8
Yeast gene YOR386W
  The level of expressed mRNA in the presence of chemical substance/The level of expressed mRNA in the absence of chemical substance: 1.5
Yeast gene YPL022W
  The level of expressed mRNA in the presence of chemical substance/The level of expressed mRNA in the absence of chemical substance: 1.2
Yeast gene YPL164C
  The level of expressed mRNA in the presence of chemical substance/The level of expressed mRNA in the absence of chemical substance: 1.0
Yeast gene YPL194W
  The level of expressed mRNA in the presence of chemical substance/The level of expressed mRNA in the absence of chemical substance: 1.1
Yeast gene YPR025C
  The level of expressed mRNA in the presence of chemical substance/The level of expressed mRNA in the absence of chemical substance: 0.6
